Here are results for eight molecules from patent US20080113956A1, “Substituted Porphyrins” (priority 1997, published 2008).

The nature of data set [1]: Electrochemistry: metal-centered redox potential. The data set is classed as physicochemical. The following applies: metal centered, vs NHE, pH 7.8 if not otherwise specified. On the procedure: Electrochemistry. The electrochemical characterization was performed as described previously on a Voltammetric Analyzer Model 600 (CH instrument) using a glassy carbon electrode (Ag/AgCl reference and Pt auxiliary electrodes), at 0.5 mM porphyrin, pH 7.8 (0.05 M phosphate buffer), 0.1 M NaCl. The potentials were standardized against potassium ferricyanide/potassium ferrocyanide couple (Batinic-Haberle et al, Arch. Biochem. Biophys. 343:225 (1997); Kolthof et al, J. Phys. Chem. 39:945 (1974)).
Electrochemistry. The metal-centered redox behavior of all metalloporphyrin products was reversible. The half-wave potentials (E^O1/2) were calculated as the average of the cathodic and anodic peaks and are given in mV vs NHE (Table 5). The average shift per chlorine is +55 mV (Table 5), which is in agreement with the values previously reported for H2TPP derivatives (between −50 and +70 mV) (Sen et al, Chem. Soc. Faraday Trans. 93:4281 (1997); Autret et al. J. Chem. Soc. Dalton Trans. 2793 (1996); Hariprasad et al, J. Chem. Soc. Dalton Trans. 3429 (1996); Tagliatesta et al, Inorg. Chem. 35:5570 (1996); Ghosh, J. Am. Chem. Soc. 117:4691 (1995); Takeuchi et al, J. Am. Chem. Soc. 116:9730 (1994); Binstead et al, Inorg. Chem. 30:1259 (1991); Giraudeau et al, J. Am. Chem. Soc. 101:3857 (1979)). This shift appears to be higher (˜+65 mV) between 0 and 1, and between 2 and 3 chlorines (Table 5). […] The manganese redox state of MnCl4TE-2-PyP^5 (E^O1/2=+448 mV) and MnOBTMPyP^4+ (E^O1.2=+480 mV) is 3+ and 2+, respectively. This difference may be explained by their difference in terms of redox potential (˜30 mV) but also by structural considerations, for instance an increased distortion of the porphyrin ring in the case of MnOBTMPyP^4+. (Batinic-Haberle et al, Arch. Biochem. Biophys. 343:225 (1997); Ochsenbein et al, Angew. Chem. Int. Ed. Engl. 33:348 (1994)).

A further data set relates to rat brain homogenates. Description: Iron/ascorbate mediated lipid peroxidation of rat brain homogenates (TBARS). The following applies: for IC50: rat brain homogenate, 30 minutes incubation with iron and ascorbate, TBARS. The format is biochemical. On the procedure: Frozen adult Sprague-Dawley rat brains (Pel-Freez, Rogers, Ark.) were homogenized with a polytron (Turrax T25, Germany) in 5 volumes of ice cold 50 mM potassium phosphate at pH 7.4. Homogenate protein concentration was determined with the Coomassie Plus protein assay (Pierce, Rockford, Ill.) using bovine serum albumin as a standard. The homogenate volume was adjusted with buffer to give a final protein concentration of 10 mg/ml and frozen as aliquots at […].
Rat brain homogenates (2 mg protein) were incubated with varying concentrations of antioxidant at 37° C. for 15 minutes. Oxidation of the rat brain homogenate was initiated by the addition of 0.1 ml of a freshly prepared anaerobic stock solution containing iron(II) chloride (0.25 mM) and ascorbate (1 mM) as previously reported (Braughler et al, J. Biol. Chem. 262:10438 (1987)). Samples (final volume 1 ml) were placed in a shaking water bath at 37° C. for 30 minutes. The reactions were stopped by the addition of 0.1 ml of a stock butylated hydroxytoluene (60 mM) solution in ethanol.
The concentration of thiobarbituric acid reactive species (TBARS) in rat brain homogenates was used as a index of lipid peroxidation (Bernhem et al, J. Biol. Chem. 174:257 (1948); Witz et al, J. Free Rad. Biol. Med. 2:33 (1986); Kikugawa et al, Anal. Biochem. 202:249 (1992); Jentzsch et al, Free Rad. Biol. Med. 20P251 (1996)). Malondialdehyde standards were obtained by adding 8.2 μl of 1,1,3,3-tetramethoxypropane in 10 ml of 0.01 M HCl and mixing for 10 minutes at room temperature. This stock was further diluted in water to give standards that ranged from 0.25 to 25 μM. Samples or standards (200 μl) were acidified with 200 μl of 0.2 M phosphoric acid in 1.5 ml locking microfuge tubes. The color reaction was initiated by the addition of 25 μl of a 0.11M thiobarbituric acid solution and samples were placed in a 90° C. heating block for 45 minutes. TBARS were extracted with 0.5 ml of n-butanol by vortexing samples for 3 minute and chilling on ice for 1 minute. The samples were then centrifuged at 12,000×g for 3 minutes, 150 μl aliquots of the n-butanol phase were placed in each well of a 96-well plate and read at 535 nm in a Thermomax platereader (Molecular Devices, Sunnyvale, Calif.) at 25° C. Sample absorbencies were converted to MDA equivalencies (μM) by extrapolation from the MDA standard curve. None of the antioxidants at concentrations employed in these studies affected the reaction of MDA standards with thiobarbituric acid and reactions without TBA were used as subtraction blanks.
Data were presented as their means ±SE. The inhibitory concentration of antioxidants that decreased the degree of lipid peroxidation by 50% (IC50) and respective 95% confidence intervals (CI) were determined by fitting a sigmoidal curve with variable slope to the data (GraphPad Prizm, San Diego, Calif.).

Data set [2] can be described thus: SOD activity in U/mg (reduction of cytochrome c or photoreduction of NBT). The settings on record: unit = amount that inhibits one half the reduction of cytochrome c or photoreduction of NBT. The format is biochemical.
For data set [3] the following is noted: cited from earlier work; for kcat of comparison compounds: literature comparators.
The conditions of data set [4]: vs NHE; literature comparators; cited from earlier work.

By IC50 is commonly meant the point on the concentration scale where inhibition reaches its midpoint. Low values mean inhibition by little substance, high ones a need for much substance. Regarding `O=C(O)c1ccc(-c2c3nc(c(-c4ccc(C(=O)O)cc4)c4ccc([nH]4)c(-c4ccc(C(=O)O)cc4)c4nc(c(-c5ccc(C(=O)O)cc5)c5ccc2[nH]5)C=C4)C=C3)cc1.[Fe+3]` [FeTBAP, Ferric 5,10,15,20-tetrakis(4-benzoic acid) porphyrin], the “Redox Potential (E1/2)” value in data set [1] is reported as “+0.01 V”. The molecule further had a 50% inhibitory concentration (IC50) in the data set with rat brain homogenates of 212 µM. In data set [2], this molecule gave an SOD of 24 U/mg.
Consider `C[n+]1ccc(-c2c3nc(c(-c4cc[n+](C)cc4)c4[n-]c(c(Br)c4Br)c(-c4cc[n+](C)cc4)c4nc(c(-c5cc[n+](C)cc5)c5[n-]c2c(Br)c5Br)C(Br)=C4Br)C(Br)=C3Br)cc1.[Mn+3]` [MnOBTM-4-PyP, Manganese β-octabromo-meso-tetrakis-(N-methylpyridinium-4-yl)porphyrin], for which, in data set [1], the “Redox Potential (E1/2)” value was “+0.48 V”. The molecule also gave a half-maximal inhibitory concentration (IC50) in the data set with rat brain homogenates of 1.3 µM. In addition, the SOD in data set [2] was 18,460 U/mg. Also, in data set [3], the “kcat of comparison compounds” value is 22 10^7 M^−1 s^−1. In addition, the “E°1/2 half-wave potential of comparison compounds” value in data set [4] is given as “+480 mV”.
As to `Cc1c(C)c2c(c(C)c1O)CCC(C)(C(=O)O)O2` (centres unmarked) [Trolox], the IC50 in the data set on rat brain homogenates stood at 204 µM.
Regarding `C[n+]1ccccc1-c1c2nc(c(-c3cccc[n+]3C)c3ccc([nH]3)c(-c3cccc[n+]3C)c3nc(c(-c4cccc[n+]4C)c4ccc1[nH]4)C=C3)C=C2.[Zn+2]` [ZnTM-2-PyP], the IC50 in the data set on rat brain homogenates was found to be 591 µM. For the same molecule, the SOD result in data set [2] is listed as “trace”.
In turn, `C[n+]1ccc(-c2c3nc(c(-c4cc[n+](C)cc4)c4ccc([nH]4)c(-c4cc[n+](C)cc4)c4nc(c(-c5cc[n+](C)cc5)c5ccc2[nH]5)C=C4)C=C3)cc1.[Zn+2]` [ZnTM-4-PyP] yielded an IC50 in the data set on rat brain homogenates of 241 µM. Besides, the SOD entry in data set [2] is reported as “trace”.
As to “CuZnSOD: dimeric copper- and zinc-containing superoxide dismutase enzyme; bovine in Example VIII”, the “Redox Potential (E1/2)” value in data set [1] is “+0.35 V”. In addition, it took 15 µM to reach half-maximal inhibition in the data set with rat brain homogenates (IC50). For the same molecule, the SOD in data set [2] is listed as 5,100 U/mg. Moreover, the “kcat of comparison compounds” value in data set [3] is on record as 200 10^7 M^−1 s^−1. In data set [3] (per active site), the “kcat per active site” value is listed as 10^9 M^−1s^−1. Further, the “E°1/2 half-wave potential of comparison compounds” value in data set [4] was “+260 mV”.
Regarding MnTBAP, the “Redox Potential (E1/2)” value in data set [1] is reported as −0.19 V. The molecule also yielded a half-inhibitory concentration (IC50) in the data set on rat brain homogenates of 29 µM. The molecule also displayed an SOD in data set [2] of 179 U/mg.

B1: catalase: enzymatic antioxidant (protein, UniProt P04040 2-527, looked up)
Catalase: ADSRDPASDQMQHWKEQRAAQKADVLTTGAGNPVGDKLNVITVGPRGPLLVQDVVFTDEMAHFDRERIPERVVHAKGAGAFGYFEVTHDITKYSKAKVFEHIGKKTPIAVRFSTVAGESGSADTVRDPRGFAVKFYTEDGNWDLVGNNTPIFFIRDPILFPSFIHSQKRNPQTHLKDPDMVWDFWSLRPESLHQVSFLFSDRGIPDGHRHMNGYGSHTFKLVNANGEAVYCKFHYKTDQGIKNLSVEDAARLSQEDPDYGIRDLFNAIATGKYPSWTFYIQVMTFNQAETFPFNPFDLTKVWPHKDYPLIPVGKLVLNRNPVNYFAEVEQIAFDPSNMPPGIEASPDKMLQGRLFAYPDTHRHRLGPNYLHIPVNCPYRARVANYQRDGPMCMQDNQGGAPNYYPNSFGAPEQQPSALEHSIQYSGEVRRFNTANDDNVTQVRAFYVNVLNEEQRKRLCENIAGHLKDAQIFIQKKAVKNFTEVHPDYGSHIQALLDKYNAEKPKNAIHTFVQSGSHLAAREKANL
In the case of B1, the “inhibition of iron/ascorbate-initiated lipid peroxidation” value in the data set on rat brain homogenates (up to concentrations of 1 mg/ml) is on record as “did not inhibit”.
